Source: patent publication US20090238852A1, “METHODS FOR CONTROLLING INTRACELLULAR CALCIUM LEVELS ASSOCIATED WITH AN ISCHEMIC EVENT” (University of Utah Research Foundation, priority 2008, published 2009)

Assays:
[1] = system: NCX; test: NCX current (INCX) voltage clamp in intact isolated ventricular myocytes; type: cell-based, rabbit; details: ODSH 100 μg/ml; approximately −60 mV to +50 mV; n = 5; FIG. 7
Text: The direct effects of ODSH on NCX were further measured by means of voltage clamp studies in intact isolated rabbit ventricular myocytes. […] This finding was initially surprising but is consistent with a previous report that heparin and heparan sulfate disaccharides can stimulate Ca^2+ extrusion by NCX in smooth muscle cell lines (Shinjo et al, 2002). […] We therefore studied the effects of ODSH on Na^+ loading.

[2] = system: myeloperoxidase (MPO) activity; test: Porcine ischemia/reperfusion model: myeloperoxidase activity in myocardium; type: in vivo, pig; details: ODSH 45 mg/kg; FIG. 11
Text: Arterial access was achieved via bilateral femoral artery cut-downs for the insertion of 8F sheaths. Central venous and carotid access was achieved via a neck incision to expose the external jugular vein and common carotid artery. Animals were then anticoagulated with 50 U/kg of unfractionated heparin to maintain an activated clotting time (ACT) between 250-350 seconds, prior to ischemia. A 7-8 Fr pigtail catheter was placed in the left ventricular cavity to measure pressure and for injection of 15 μneutron-activated microspheres. […] Baseline cardiodynamic and hemodynamic data were measured using a solid state transducer-tipped catheter in the left ventricle (Millar Instruments, Houston, Tex.) to measure left ventricular pressure, and a fluid-filled transducer connected to the side port of the femoral artery sheath to measure peripheral arterial pressure. Approximately 3-4 million neutron-activated microspheres (BioPhysics Assay Laboratory, Inc, Worcester, Ma) (15 μm) were delivered through a pig-tail catheter into the left ventricle over a 30 second period, to quantify regional myocardial blood flow (RMBF). […] Balloon occlusion time was 75 minutes with coronary occlusion confirmed by contrast angiography, ST segment changes on electrocardiography, and quantitatively confirmed by microspheres delivered at the end of ischemia, as described above. […]

2-O, 3-O desulfated heparin [ODSH]
effect on NCX current (INCX) [1]: significant stimulation of exchange | MPO activity in ischemic-reperfused myocardium [2]: significantly reduced
